This is an account of results in ChEMBL document CHEMBL2176875, “Ago-allosteric modulators of human glucagon-like peptide 2 receptor” (Bioorg Med Chem Lett, 2012).

Assay [1] concerns the target T1, Glucagon-like peptide 2 receptor (Homo sapiens) (UniProt O95838).
T1 sequence (whole entry): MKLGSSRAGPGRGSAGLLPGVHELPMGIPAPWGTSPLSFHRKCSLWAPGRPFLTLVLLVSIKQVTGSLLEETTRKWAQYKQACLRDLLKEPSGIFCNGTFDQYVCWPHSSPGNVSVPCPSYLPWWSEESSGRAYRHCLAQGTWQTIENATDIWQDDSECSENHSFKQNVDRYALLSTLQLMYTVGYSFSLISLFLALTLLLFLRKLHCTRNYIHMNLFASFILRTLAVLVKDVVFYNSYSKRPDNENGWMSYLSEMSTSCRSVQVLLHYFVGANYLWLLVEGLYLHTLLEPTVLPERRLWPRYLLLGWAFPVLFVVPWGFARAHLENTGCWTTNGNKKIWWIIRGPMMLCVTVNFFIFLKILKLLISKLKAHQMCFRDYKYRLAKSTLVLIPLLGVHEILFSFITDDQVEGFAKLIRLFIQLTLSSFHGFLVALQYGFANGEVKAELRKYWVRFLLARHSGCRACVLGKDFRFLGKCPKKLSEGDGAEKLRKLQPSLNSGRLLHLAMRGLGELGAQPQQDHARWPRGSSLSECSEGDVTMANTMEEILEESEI
The experiment in a line: Positive ago-allosteric modulation of GLP2R overexpressed in human SE302 cells assessed as placental alkaline phosphatase activation at 50 uM measured on day 3 by Alamar Blue assay relative to 100 pM GLP2. Type of assay: cell-based. For orientation: Alamar Blue is a resazurin reagent that responds to reducing activity.

The target in assay [2] is T1, Glucagon-like peptide 2 receptor (Homo sapiens). As to the kind of experiment: Displacement of [125I]-Bolton Hunter labeled GLP2 from GLP-2R overexpressed in human SE302 cell membranes up to 100 uM after 2 hrs by gamma counter. Background: Loss of bound radioactivity is the signal in a displacement assay; it reports binding, not function.
Assay [3] has the same target. As to the kind of experiment: Positive ago-allosteric modulation of GLP2R overexpressed in human SE302 cells assessed as increase in GLP2 (11 to 33)-induced placental alkaline phosphatase activation at 10 uM measured on day 3 by Alamar Blue assay relative to GLP2. Type of assay: cell-based.
For assay [4] the target is unchanged. As to the kind of experiment: Positive ago-allosteric modulation of GLP2R overexpressed in human SE302 cells assessed as decrease in GLP2 (3 to 33) EC50 at 10 uM measured on day 3 by Alamar Blue assay relative to control. The format is cell-based.
For assay [5] the target is unchanged. As to the kind of experiment: Positive ago-allosteric modulation of GLP2R overexpressed in human SE302 cells assessed as GLP2 (3 to 33)-induced placental alkaline phosphatase activation at 10 uM measured on day 3 by Alamar Blue assay relative to GLP2. The format is cell-based.
Assay [6] has the same target. The experiment in a line: Positive ago-allosteric modulation of GLP2R overexpressed in human SE302 cells assessed as decrease in GLP2 (11 to 33) EC50 at 10 uM measured on day 3 by Alamar Blue assay relative to control. Type of assay: cell-based.
Assay [7] has the same target. The experiment in a line: Positive ago-allosteric modulation of GLP2R overexpressed in human SE302 cells assessed as increase in GLP2-induced placental alkaline phosphatase activation at 10 uM measured on day 3 by Alamar Blue assay relative to control. The format is cell-based.
The target is the same in assay [8]. As to the kind of experiment: Positive ago-allosteric modulation of GLP2R overexpressed in human SE302 cells assessed as increase in GLP2 (3 to 33)-induced placental alkaline phosphatase activation at 10 uM measured on day 3 by Alamar Blue assay relative to control. The format is cell-based.
The target is the same in assay [9]. The experiment in a line: Positive ago-allosteric modulation of GLP2R overexpressed in human SE302 cells assessed as upward shift in GLP2-induced placental alkaline phosphatase activation measured on day 3 by Alamar Blue assay. Type of assay: cell-based.
Assay [10] has the same target. As to the kind of experiment: (§1) Positive ago-allosteric modulation of GLP2R overexpressed in human SE302 cells assessed as placental alkaline phosphatase activation measured on day 3 by Alamar Blue assay. Type of assay: cell-based.
For assay [11] the target is unchanged. The experiment in a line: Positive ago-allosteric modulation of GLP2R overexpressed in human SE302 cells assessed as placental alkaline phosphatase activation at 25 uM measured on day 3 by Alamar Blue assay relative to 100 pM GLP2. The format is cell-based.
Assay [12] shares this target. As to the kind of experiment: Positive ago-allosteric modulation of GLP2R overexpressed in human SE302 cells assessed as increase in GLP2 (11 to 33)-induced placental alkaline phosphatase activation at 1 uM measured on day 3 by Alamar Blue assay relative to control. Type of assay: cell-based.
The target is the same in assay [13]. The experiment in a line: Positive ago-allosteric modulation of GLP2R overexpressed in human SE302 cells assessed as increase in GLP2 (3 to 33)-induced placental alkaline phosphatase activation at 1 uM measured on day 3 by Alamar Blue assay relative to control. The format is cell-based.
For assay [14] the target is unchanged. As to the kind of experiment: Positive ago-allosteric modulation of GLP2R overexpressed in human SE302 cells assessed as increase in intracellular cAMP level at 10 uM after 30 mins in presence of GLP2. The format is functional, cell-based. For orientation: Cyclic AMP is a second messenger, typically raised through Gs and lowered through Gi signalling.
For assay [15] the target is unchanged. The experiment in a line: Positive ago-allosteric modulation of GLP2R overexpressed in human SE302 cells assessed as increase in intracellular cAMP level at 10 to 100 uM after 30 mins. The format is functional, cell-based.
The target is the same in assay [16]. As to the kind of experiment: Positive ago-allosteric modulation of GLP2R overexpressed in human SE302 cells assessed as placental alkaline phosphatase activation at 25 uM measured on day 3 by Alamar Blue assay relative to 10 pM GLP2. Type of assay: cell-based.
Assay [17] has the same target. As to the kind of experiment: Positive ago-allosteric modulation of GLP2R overexpressed in human SE302 cells assessed as decrease in GLP2 (11 to 33) EC50 at 1 uM measured on day 3 by Alamar Blue assay relative to control. Type of assay: cell-based.
Assay [18] has the same target. As to the kind of experiment: Positive ago-allosteric modulation of GLP2R overexpressed in human SE302 cells assessed as decrease in GLP2 (3 to 33) EC50 at 1 uM measured on day 3 by Alamar Blue assay relative to control. Type of assay: cell-based.
Assay [19] has the same target. The experiment in a line: Positive ago-allosteric modulation of GLP2R overexpressed in human SE302 cells assessed as increase in intracellular cAMP level at 1 to 10 uM after 30 mins in presence of GLP2 (11 to 33). Type of assay: functional, cell-based.
For assay [20] the target is unchanged. As to the kind of experiment: Positive ago-allosteric modulation of GLP2R overexpressed in human SE302 cells assessed as increase in intracellular cAMP level at 1 to 10 uM after 30 mins in presence of GLP2 (3 to 33). The format is functional, cell-based.
Assay [21] shares this target. As to the kind of experiment: Positive ago-allosteric modulation of GLP2R overexpressed in human SE302 cells assessed as leftward shift in GLP2-induced placental alkaline phosphatase activation measured on day 3 by Alamar Blue assay. The format is cell-based.
Assay [22] deals with Glucagon-like peptide 1 receptor (Homo sapiens) (UniProt P43220). The experiment in a line: Positive ago-allosteric modulation of GLP1R overexpressed in human SE302 cells assessed as increase in intracellular cAMP level at 10 to 100 uM after 30 mins. The format is functional, cell-based.
The target of assay [23] is T1, Glucagon-like peptide 2 receptor (Homo sapiens). The experiment in a line: Positive ago-allosteric modulation of GLP2R overexpressed in human SE302 cells assessed as increase in GLP2 (11 to 33)-induced placental alkaline phosphatase activation at 10 uM measured on day 3 by Alamar Blue assay relative to control. Type of assay: cell-based.
The target is the same in assay [24]. The experiment in a line: Positive ago-allosteric modulation of GLP2R overexpressed in human SE302 cells assessed as change in GLP2 EC50 measured on day 3 by Alamar Blue assay relative to control. Type of assay: cell-based.
Assay [25] has the same target. As to the kind of experiment: Displacement of [125I]-Bolton Hunter labeled GLP2 from GLP2R overexpressed in human SE302 cell membranes at 10 uM after 2 hrs by gamma counter.
Assay [26] has the same target. The experiment in a line: Displacement of [125I]-Bolton Hunter labeled GLP2 from GLP2R overexpressed in human SE302 cell membranes at 1 uM after 2 hrs by gamma counter.
Assay [27] deals with T2, Glucagon-like peptide 2 receptor (Homo sapiens, UniProt O95838).
T2 sequence (O95838 whole entry): T1 sequence (whole entry)
The description is as §1. Type of assay: cell-based.

Assay [28] deals with T1, Glucagon-like peptide 2 receptor (Homo sapiens). As to the kind of experiment: Positive ago-allosteric modulation of GLP2R overexpressed in human SE302 cells assessed as increase in (Z)-methyl 2-(2-(2,5-dichlorothiophen-3-yl)-2-(hydroxyimino)ethylthio)benzoate-induced placental alkaline phosphatase activation measured on day 3 by Alamar Blue assay. Type of assay: cell-based.

For assay [29] the target is unchanged. The experiment in a line: Positive ago-allosteric modulation of GLP2R overexpressed in human SE302 cells assessed as reduction of GLP2-induced cAMP level at 3 to 10 uM after 30 mins. The format is functional, cell-based.
Assay [30] has the same target. The experiment in a line: Positive ago-allosteric modulation of GLP2R overexpressed in human SE302 cells assessed as placental alkaline phosphatase activation measured on day 3 by Alamar Blue assay relative to GLP2. The format is cell-based.

The source made the active and inactive calls. No cut-off for these calls is given here.

Sequence of Glucagon-like peptide 1 receptor (Homo sapiens) (P43220 whole entry): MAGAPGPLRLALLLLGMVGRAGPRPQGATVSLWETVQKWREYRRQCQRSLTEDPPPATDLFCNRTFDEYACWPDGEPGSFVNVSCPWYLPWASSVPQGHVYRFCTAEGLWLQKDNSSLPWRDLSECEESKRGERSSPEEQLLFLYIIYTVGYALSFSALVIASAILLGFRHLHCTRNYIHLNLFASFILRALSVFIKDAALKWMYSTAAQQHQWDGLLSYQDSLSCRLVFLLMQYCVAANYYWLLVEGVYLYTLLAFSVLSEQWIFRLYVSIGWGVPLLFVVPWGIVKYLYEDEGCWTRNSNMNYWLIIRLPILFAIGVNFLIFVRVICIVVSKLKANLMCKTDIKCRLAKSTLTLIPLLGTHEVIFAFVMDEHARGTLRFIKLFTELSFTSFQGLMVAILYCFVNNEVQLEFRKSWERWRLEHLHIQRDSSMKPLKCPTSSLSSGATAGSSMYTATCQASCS

In the case of `O/N=C(\CSc1ccncc1)c1cc(Cl)sc1Cl`, in assay [1], the %max is 55%. Also, the result in assay [2] was inactive.
Regarding `O/N=C(\CSc1ccccc1)c1cc(Cl)sc1Cl`, the outcome in [3], in assay [5], in assay [14], in assay [15], in [19] and in assay [20] was Active. Besides, the fold change (FC) stood at 3.3 in [4], 17 in assay [6], 3.4 in assay [17] and 1.2 in assay [18]. The Activity in [7] is 10%; in assay [9], “Dose-dependent effect”; in assay [21], “Dose-dependent effect”. Also, the %max in assay [8] stood at 150%; in assay [11], 55%; in [12] it was 490%; in assay [13], 110%; in assay [16] it was 701%; in [23], 930%. Besides, the result in assay [10], in assay [22] and in assay [24] was inactive.
In the case of H-NTILDNLAARDFINWLIQTKITD-OH, the Activity is 100% in assay [25], 88% in [26], “Dose-dependent effect” in assay [28] and “Dose-dependent effect” in assay [29]. Moreover, the EC50 in assay [27] worked out at 1.3 µM. Besides, the %max in assay [30] turned out to be 11%.

In general, EC50 refers to the midpoint of the concentration-response curve.
